These results are taken from patent US20170107203A1, “HETEROCYCLIC INHIBITORS OF THE SODIUM CHANNEL” (EPIRUS BIOPHARMACEUTICALS, INC., priority 2014, published 2017).

For assay [1], the target named is T1, human Nav1.7 (Homo sapiens, UniProt Q15858).
T1 construct: expressed in transfected cells
The assay is described as follows: Assessment of Nav1.7 activity on PatchXpress (voltage dependence / slow inactivation parameters). Format: cell-based. Conditions: compound at 10 μM, relative to 0.2% DMSO vehicle control; for hNav1.7: Reduction in current at 20 mV (normalized data) Delta Ratio: before/after 30 sec conditioning pulse at 20 mV; for hNav1.7: Shift in voltage dependence of inactivation (mV) Delta Vhalf: PatchXpress. In outline:
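HEK293F cells stably co-expressing hNav1.7 and β1 were recorded by automated patch clamp in TEA-based external solution (50 mM NaCl, pH 7.4) with CsF internal solution (pH 7.2). A variable conditioning prepulse inactivated channels, followed by a brief hyperpolarizing step and a depolarizing test pulse. Compounds at 10 μM were compared with 0.2% DMSO vehicle across four parameters.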

Assay [2] deals with T2, hNav1.7 (Homo sapiens, UniProt Q15858).
T2 construct: expressed in transfected cells
T2 sequence (Q15858 whole entry): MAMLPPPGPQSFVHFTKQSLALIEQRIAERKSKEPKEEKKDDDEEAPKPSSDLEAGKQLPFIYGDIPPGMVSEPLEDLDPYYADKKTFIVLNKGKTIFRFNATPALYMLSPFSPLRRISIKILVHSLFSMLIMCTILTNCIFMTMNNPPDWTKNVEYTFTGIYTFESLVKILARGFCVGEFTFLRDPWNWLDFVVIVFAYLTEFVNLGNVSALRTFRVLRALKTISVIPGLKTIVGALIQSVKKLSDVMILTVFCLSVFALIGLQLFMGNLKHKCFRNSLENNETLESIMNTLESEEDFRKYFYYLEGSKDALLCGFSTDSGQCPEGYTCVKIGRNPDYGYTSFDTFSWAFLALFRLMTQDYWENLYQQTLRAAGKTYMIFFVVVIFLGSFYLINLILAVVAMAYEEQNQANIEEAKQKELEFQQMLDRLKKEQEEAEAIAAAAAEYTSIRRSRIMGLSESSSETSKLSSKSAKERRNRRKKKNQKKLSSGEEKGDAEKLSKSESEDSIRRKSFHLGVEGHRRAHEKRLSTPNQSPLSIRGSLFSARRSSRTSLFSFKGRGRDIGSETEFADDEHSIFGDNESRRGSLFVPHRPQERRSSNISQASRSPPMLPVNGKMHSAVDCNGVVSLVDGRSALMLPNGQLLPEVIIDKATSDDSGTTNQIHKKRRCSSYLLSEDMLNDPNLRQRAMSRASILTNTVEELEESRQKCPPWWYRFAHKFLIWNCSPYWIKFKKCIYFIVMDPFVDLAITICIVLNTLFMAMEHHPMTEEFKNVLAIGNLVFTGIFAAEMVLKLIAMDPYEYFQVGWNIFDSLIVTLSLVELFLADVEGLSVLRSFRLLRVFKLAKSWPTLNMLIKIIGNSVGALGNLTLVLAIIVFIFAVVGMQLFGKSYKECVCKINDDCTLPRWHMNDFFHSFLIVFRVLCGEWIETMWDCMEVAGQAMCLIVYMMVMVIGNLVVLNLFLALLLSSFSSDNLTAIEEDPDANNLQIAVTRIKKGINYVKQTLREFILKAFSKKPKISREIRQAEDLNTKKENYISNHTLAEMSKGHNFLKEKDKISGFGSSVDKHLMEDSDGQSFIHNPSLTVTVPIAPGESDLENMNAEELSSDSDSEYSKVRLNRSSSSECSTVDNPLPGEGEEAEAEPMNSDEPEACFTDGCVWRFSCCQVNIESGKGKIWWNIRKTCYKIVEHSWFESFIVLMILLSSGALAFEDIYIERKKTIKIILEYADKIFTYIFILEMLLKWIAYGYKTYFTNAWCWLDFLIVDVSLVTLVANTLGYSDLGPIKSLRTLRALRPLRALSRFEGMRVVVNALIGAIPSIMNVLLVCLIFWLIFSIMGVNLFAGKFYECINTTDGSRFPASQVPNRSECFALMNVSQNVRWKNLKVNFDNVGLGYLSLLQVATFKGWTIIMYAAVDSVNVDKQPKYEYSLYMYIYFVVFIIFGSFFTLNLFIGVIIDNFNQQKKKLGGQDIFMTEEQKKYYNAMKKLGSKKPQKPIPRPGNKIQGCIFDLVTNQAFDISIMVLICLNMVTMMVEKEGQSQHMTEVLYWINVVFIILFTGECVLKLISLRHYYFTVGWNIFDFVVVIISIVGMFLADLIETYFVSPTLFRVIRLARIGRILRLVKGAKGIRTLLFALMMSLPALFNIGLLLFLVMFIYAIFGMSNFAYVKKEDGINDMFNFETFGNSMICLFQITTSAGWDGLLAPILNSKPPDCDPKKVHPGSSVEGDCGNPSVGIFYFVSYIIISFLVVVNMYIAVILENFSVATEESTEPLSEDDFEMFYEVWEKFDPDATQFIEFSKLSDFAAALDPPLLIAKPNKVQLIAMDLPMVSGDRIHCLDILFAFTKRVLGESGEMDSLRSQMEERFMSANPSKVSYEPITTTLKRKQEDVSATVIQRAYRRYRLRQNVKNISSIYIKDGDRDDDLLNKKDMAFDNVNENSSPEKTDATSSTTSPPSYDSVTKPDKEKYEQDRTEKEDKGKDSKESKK
T2 sequence (Q07699 19-218 partner): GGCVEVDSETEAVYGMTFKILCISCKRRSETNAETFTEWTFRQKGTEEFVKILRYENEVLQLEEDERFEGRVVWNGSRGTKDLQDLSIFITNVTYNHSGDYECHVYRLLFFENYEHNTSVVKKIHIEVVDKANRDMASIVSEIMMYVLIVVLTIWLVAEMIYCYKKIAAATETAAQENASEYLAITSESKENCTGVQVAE
The assay is described as follows: Nav1.7 potency, manual patch clamp. Conditions: manual patchclamp. Format: cell-based. As for the experimental part: (§1) The generation of a HEK 293F cell line stably expressing human Nav1.7/Navp1 was achieved by co-transfecting human SCN9A and human SCN1B cDNAs, subcloned into plasmid vectors, utilizing standard transfection techniques. Clones were selected using appropriate selection agents (0.3 mg/mL Zeocin and 0.8 mg/mL Geneticin) and maintained in Dulbecco's Modified Eagle medium, 10% fetal bovine serum, 1% non-essential amino acids to ˜80% confluence at 37° C. in a humidified incubator with 95% atmosphere and 5% CO2.
(§2) In some cases, the potency of compounds was measured using either the Patchliner automated patch clamp platform (Nanion) or manual patch clamp techniques. Both approaches allowed the compounds to be characterized based upon the ability of a compound to modulate use- and/or state-dependence. The potency data is tabulated in Table 3 and is represented by eight data fields. The first four fields represent potency data measured with the Patchliner automated platform under varying use- and state-dependent electrophysiology protocols similar to the Patch express protocols detailed above. The first data column describes the potency of compounds when the Nav1.7 channel is being repetitively activated at a 7 Hz hyperpolarization frequency (Table 3: hNav1.7: IC50 of inward current block at 7 Hz, Automated patchclamp). The second data column represents the potency at which 50% of the initial hyperpolarization pulse is inhibited by the compounds (Table 3: hNav1.7: IC50 of P1 block, Automated patchclamp). The third data column details the potency of compounds in their ability to block 50% of Nav1.7 channels when these channels are induced into the slow inactivated state (Table 3: hNav1.7: IC50 of slow inactivation block, Automated patchclamp). […] The next three data fields describe the data generated from manual patchclamp electrophysiology measurements using similar methods to those employed for automated patchclamp studies. […] The last column characterizes the state-dependence of compound inhibition. Compounds that maintain the greatest potency for the slow inactivated state over fast inactivated or tonic inhibition at 0.25 Hz are characterized as “state dependent, blocker of slow inactivation”.

The target in assay [3] is T2, hNav1.7. The assay is described as follows: Nav1.7 potency, Patchliner automated patch clamp. Format: cell-based. The settings on record: automated patchclamp. As for the experimental part: as §1, §2
(In patch-clamp work, channel activity is measured electrically.)

Assay [4] deals with male Sprague-Dawley rat. The assay is described as follows: Formalin test in rats (automated flinch detection). The assay is classed as in vivo. Conditions: 100 mg/kg SC 1 hour prior to formalin. As for the experimental part: The formalin test in rats was performed as previously described (McNamara, 2007. Proc. Natl. Acad. Sci., vol 104, page 13525) using an automated flinch-detecting system (T. Yaksh, University of California at San Diego, La Jolla, Calif.). On the day of testing, a small metal band (0.5 g) was loosely placed around the right hind paw of a male Sprague-Dawley rat (average weight, ˜250 g). The rats were allowed to acclimate to a Plexiglas chamber for at least 30 min before testing. Formalin was then injected (50 μl of 2.5% formalin, diluted in saline) into the dorsal surface of the right hind paw of the rat, and the animal was put into a chamber of the automated formalin apparatus where movement of the formalin-injected paw was recorded. The number of paw flinches per minute was tallied for the next 60 minutes. The time interval phases were defined as follows: Phase I (0-9 mins), Phase II (10-60 mins), Phase IIA (10-40 mins), and Phase IIB (41-60 mins). The following compounds were administered 1 hour prior to formalin administration. Compound 52 from Table 1 was administered by oral gavage in 4% DMSO, 10% Solutol, 86% H2O. Gabapentin was administered subcutaneously in 0.9% NaCl (aq).

Setting [5] is: slow inactivated state, read-out: Nav1.7 IC50 SLOW INACTIVATION BLOCK (nM) (Manual Patchclamp).
Setting [6] is: initial pulse (P1), read-out: Nav1.7 IC50 P1 BLOCK (nM) (Automated Patchclamp).
Where [7] appears, read: slow inactivated state, read-out: Nav1.7 IC50 SLOW INACTIVATION BLOCK (nM) (Automated Patchclamp).
Setting [8] is: 7 Hz, read-out: Nav1.7 IC50 INWARD CURRENT BLOCK (nM) (7 Hz, Automated Patchclamp).

T1 sequence (Q15858 whole entry): as the sequence (Q15858 whole entry) above
T1 sequence (Q07699 19-218 partner): as the sequence (Q07699 19-218 partner) above

The IC50 is the concentration at which inhibition is half-maximal. For the compound `CC(C)C[C@@H](N)C(=O)N[C@@H](C)COc1cc(C(F)(F)F)cc(C(F)(F)F)c1` [Compound 1, (R)-2-amino-N-((S)-1-(3,5-bis(trifluoromethyl)phenoxy)propan-2-yl)-4-methylpentanamide], in assay [1], the “hNav1.7: Reduction in current at 20 mV (normalized data) Delta Ratio” value is −0.30, the “hNav1.7: Voltage dependence of activation (mV) VDEP” value is reported as −8.60 mV, the “hNav1.7: Voltage dependence of fast inactivation (mV) VDEP” value was −6.80 mV and the “hNav1.7: Shift in voltage dependence of inactivation (mV) Delta Vhalf” value (“hNav1.7: Shift … (mV) Delta Vhalf” for short) is recorded as −20.90 mV. Besides, in assay [2] (setting [5]), the IC50 amounted to 568 nM. Besides, the IC50 in assay [3] (setting [6]) was 15500 nM. Further, the IC50 in assay [3] (setting [7]) turned out to be 2580 nM.

For `NCC1(CC(=O)O)CCCCC1` [Gabapentin], the “Phase 1 (paw flinches)” value in assay [4] (Phase I (0-9 mins)) is 320 ± 58. The “Total Phase 2 (paw flinches)” value in assay [4] (Phase II (10-60 mins)) amounted to 562 ± 213. The “Phase 2a (paw flinches)” value in assay [4] (Phase IIA (10-40 mins)) is on record as 486 ± 202. The “Phase 2b (paw flinches)” value in assay [4] (Phase IIB (41-60 mins)) is reported as 77 ± 47.

In the case of `CC(C)C[C@@H](N)C(=O)NC(COc1cc(C(F)(F)F)cc(C(F)(F)F)c1)c1ccccc1` (stereo partly drawn) [Compound 38, (2R)-2-amino-N-(2-(3,5-bis(trifluoromethyl)phenoxy)-1-phenylethyl)-4-methylpentanamide], in assay [1], the “hNav1.7: Reduction in current at 20 mV (normalized data) Delta Ratio” value is −0.34, the “hNav1.7: Voltage dependence of activation (mV) VDEP” value is on record as −11.5 mV, the “hNav1.7: Voltage dependence of fast inactivation (mV) VDEP” value is listed as −15.3 mV and the “hNav1.7: Shift … (mV) Delta Vhalf” value is −33.7 mV. The IC50 in assay [2] (setting [5]) was 436 nM. For the same compound, in assay [3] (setting [6]), the IC50 stood at 10300 nM. Moreover, the IC50 in assay [3] (setting [7]) was 5320 nM.

Take `CC(C)C[C@@H](N)C(=O)NC(C)COc1cc(C(F)(F)F)cc(C(F)(F)F)c1` (stereo partly drawn) [Compound 6, (2R)-2-amino-N-(1-(3,5-bis(trifluoromethyl)phenoxy)propan-2-yl)-4-methylpentanamide]: in assay [1], the “hNav1.7: Reduction in current at 20 mV (normalized data) Delta Ratio” value is recorded as −0.25, the “hNav1.7: Voltage dependence of activation (mV) VDEP” value is given as −4.80 mV, the “hNav1.7: Voltage dependence of fast inactivation (mV) VDEP” value is on record as −6.20 mV and the “hNav1.7: Shift … (mV) Delta Vhalf” value is given as −32.70 mV. In assay [3] (setting [8]), the IC50 was 1660 nM. In assay [3] (setting [6]), the IC50 is 12700 nM. Moreover, the IC50 in assay [3] (setting [7]) was determined as 2770 nM.

With `CN[C@H](CC(C)C)C(=O)NCCOc1cc(F)cc(C(F)(F)F)c1` [Compound 16, (R)-N-(2-(3-fluoro-5-(trifluoromethyl)phenoxy)ethyl)-4-methyl-2-(methylamino)pentanamide], the “hNav1.7: Reduction in current at 20 mV (normalized data) Delta Ratio” value in assay [1] was −0.11. Also, the “hNav1.7: Voltage dependence of activation (mV) VDEP” value in assay [1] is −2.80 mV. In assay [1], the “hNav1.7: Voltage dependence of fast inactivation (mV) VDEP” value is reported as −2.60 mV. Besides, the “hNav1.7: Shift … (mV) Delta Vhalf” value in assay [1] was −14.70 mV. Besides, the IC50 in assay [2] (7 Hz, read-out: Nav1.7 IC50 INWARD CURRENT BLOCK (nM) (7 Hz, Manual Patchclamp)) was determined as 23200 nM; in assay [2] (setting [5]) it was 3500 nM; in assay [3] (0.25 Hz, read-out: Nav1.7 IC50 INWARD CURRENT BLOCK (nM) (0.25 Hz, Automated Patchclamp)), 15000 nM; in assay [3] (setting [8]) it was 9620 nM; in assay [3] (setting [7]), 8120 nM.

Turning to `N[C@@H](c1ccc(Cl)cc1)c1nc2cc(C(F)(F)F)cc(C(F)(F)F)c2[nH]1` [Compound 54, (S)-(4,6-bis(trifluoromethyl)-1H-benzo[d]imidazol-2-yl)(4-chlorophenyl)methanamine], in assay [1], the “hNav1.7: Reduction in current at 20 mV (normalized data) Delta Ratio” value was −0.26, the “hNav1.7: Voltage dependence of activation (mV) VDEP” value is reported as −10 mV, the “hNav1.7: Voltage dependence of fast inactivation (mV) VDEP” value is reported as −8.6 mV and the “hNav1.7: Shift … (mV) Delta Vhalf” value was −27.4 mV. The IC50 in assay [2] (setting [5]) amounted to 312 nM. The IC50 in assay [3] (setting [7]) was found to be 2890 nM.

Regarding `CC(C)CC(N)C(=O)N[C@@H](C)COc1cc(C(F)(F)F)cc(C(F)(F)F)c1` (stereo partly drawn) [Compound 10, 2-amino-N-((S)-1-(3,5-bis(trifluoromethyl)phenoxy)propan-2-yl)-4-methylpentanamide], in assay [1], the “hNav1.7: Reduction in current at 20 mV (normalized data) Delta Ratio” value is recorded as −0.20, the “hNav1.7: Voltage dependence of activation (mV) VDEP” value is recorded as −3.70 mV, the “hNav1.7: Voltage dependence of fast inactivation (mV) VDEP” value was −3.50 mV and the “hNav1.7: Shift … (mV) Delta Vhalf” value is given as −31.40 mV. In assay [3] (setting [8]), the IC50 was found to be 1890 nM. In addition, in assay [3] (setting [6]), the IC50 turned out to be 11500 nM. For the same compound, in assay [3] (setting [7]), the IC50 amounted to 4120 nM.

Take `CC[C@H](C)[C@H](N)C(=O)NCCOc1cc(C(F)(F)F)cc(C(F)(F)F)c1` [Compound 7, (2S,3S)-2-amino-N-(2-(3,5-bis(trifluoromethyl)phenoxy)ethyl)-3-methylpentanamide]: in assay [1], the “hNav1.7: Reduction in current at 20 mV (normalized data) Delta Ratio” value is recorded as −0.24, the “hNav1.7: Voltage dependence of activation (mV) VDEP” value is listed as −8.10 mV, the “hNav1.7: Voltage dependence of fast inactivation (mV) VDEP” value is −6.60 mV and the “hNav1.7: Shift … (mV) Delta Vhalf” value is on record as −21.40 mV.
